According to PubChem BioAssay (NCI):
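Assay format: 96-well plates, 48-hour exposure. GI50 is the concentration that inhibits growth by half. TGI: concentration producing complete growth inhibition.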

Tests used:
Assay in all cases: NCI-60 cell line screen, 48 h
NCI-H23 lung = tested on: NCI-H23 lung
OVCAR-5 ovarian = tested on: OVCAR-5 ovarian
U251 CNS = tested on: U251 CNS
MOLT-4 leukemia = tested on: MOLT-4 leukemia
HCT-116 colon = tested on: HCT-116 colon
NCI-H522 lung = tested on: NCI-H522 lung
MDA-MB-231 breast = tested on: MDA-MB-231 breast
MCF7 breast = tested on: MCF7 breast
NCI-H460 lung = tested on: NCI-H460 lung
DU-145 prostate = tested on: DU-145 prostate

Row | Structure (SMILES) | TGI (NCI-H23 lung) | TGI (OVCAR-5 ovarian) | TGI (U251 CNS) | TGI (MOLT-4 leukemia) | TGI (HCT-116 colon) | TGI (NCI-H522 lung) | TGI (MDA-MB-231 breast) | TGI (MCF7 breast) | TGI (NCI-H460 lung) | TGI (DU-145 prostate) | GI50 (NCI-H23 lung) | GI50 (OVCAR-5 ovarian) | GI50 (U251 CNS) | GI50 (MOLT-4 leukemia) | GI50 (HCT-116 colon) | GI50 (NCI-H522 lung) | GI50 (MDA-MB-231 breast) | GI50 (MCF7 breast) | GI50 (NCI-H460 lung) | GI50 (DU-145 prostate)
1 | Cc1ccc(/C=C2\CN(C)CC3C(c4ccc(C)cc4)=C(C#N)C(=O)NC23)cc1 (stereo not given) | > 50 µM | > 50 µM | > 50 µM | > 50 µM | > 50 µM | > 50 µM | > 50 µM | > 50 µM | > 50 µM | > 50 µM | – | – | – | – | – | – | – | – | – | –
2 | Nc1nc(Cl)c(C=O)c(NCC2(CO)CC(CCc3ccccc3)C2)n1 (stereo not given) | 5.49 µM | 33.3 µM | 26.6 µM | 9.01 µM | 27.3 µM | 3.56 µM | 23.7 µM | 51.8 µM | 33.8 µM | 30.8 µM | – | – | – | – | – | – | – | – | – | –
3 | CC(C)(C)c1cc(C(=O)/C=C/c2ccc(O)c(O)c2O)cc(C(C)(C)C)c1O | 20 µM | 39.1 µM | 12.3 µM | 28.9 µM | 12.7 µM | 4.94 µM | 36 µM | 27.2 µM | 6.56 µM | 35.6 µM | – | – | – | – | – | – | – | – | – | –
4 | COc1ccc(/C=C2\CN(C(=O)CCN3CCC(=NO)CC3)C/C(=C\c3ccc(OC)cc3)C2=O)cc1 | 6.37 µM | 3.92 µM | 3.47 µM | 26.9 µM | 3.23 µM | 5.5 µM | 4.55 µM | 4.86 µM | 6.74 µM | 3.67 µM | 2.47 µM | 1.83 µM | 1.74 µM | 2.95 µM | 1.74 µM | 2.17 µM | 2.11 µM | 0.619 µM | 2.63 µM | 1.9 µM
5 | COc1ccc2c(c1)c1nn(CCN(C)C)c3ccc4c(=O)n(CCN(C)C)c(=O)n2c4c13 | 0.231 µM | 0.44 µM | 1.69 µM | 0.197 µM | 0.294 µM | 0.0747 µM | 0.26 µM | 0.198 µM | 0.0142 µM | 0.603 µM | – | – | – | – | – | – | – | – | – | –
6 | CN(C)CCN1C(=O)CC[C@@]2(C)C1=CC[C@@H]1[C@@H]2CC[C@@]2(C)[C@H]1CC[C@]2(C)O | > 100 µM | > 100 µM | > 100 µM | > 100 µM | > 100 µM | > 100 µM | > 100 µM | > 100 µM | > 100 µM | > 100 µM | – | – | – | – | – | – | – | – | – | –
7 | COc1ccc(NC(=O)CC(=O)n2nc(C)c(N=Nc3ccc(C)c(C)c3)c2C)cc1 | > 100 µM | > 100 µM | > 100 µM | > 100 µM | > 100 µM | > 100 µM | > 100 µM | > 100 µM | > 100 µM | > 100 µM | – | – | – | – | – | – | – | – | – | –
8 | CCOC(=O)C1(Cc2ccccc2)Cc2cc3c(cc2C1)CCC3 | > 100 µM | 66.3 µM | > 100 µM | 58.6 µM | > 100 µM | 96.2 µM | > 100 µM | 53 µM | > 100 µM | > 100 µM | – | – | – | – | – | – | – | – | – | –
9 | Cn1c(=O)n2n(c1=O)Cc1cccc3cccc(c13)C2 | > 100 µM | > 100 µM | > 100 µM | > 100 µM | > 100 µM | > 100 µM | > 100 µM | > 100 µM | > 100 µM | > 100 µM | – | – | – | – | – | – | – | – | – | –
10 | N=C(/C=C/c1ccc(-c2cn3cc(/C=C/C(=N)N4CCCC4)ccc3n2)cc1)N1CCCC1 | > 100 µM | > 100 µM | > 100 µM | > 100 µM | > 100 µM | > 100 µM | > 100 µM | > 100 µM | > 100 µM | > 100 µM | – | – | – | – | – | – | – | – | – | –
11 | CC(=O)Oc1ccc(N2C(=O)C3c4[nH]c5ccccc5c4C4CCC(C(C)(C)C)CC4C3C2=O)cc1 (stereo not given) | 8.79 µM | 14.6 µM | 11.1 µM | 94.2 µM | 4.93 µM | 9.93 µM | 4.63 µM | 13.7 µM | 5.83 µM | 12.2 µM | – | – | – | – | – | – | – | – | – | –
12 | CCOC(=O)c1cccc(NC(=O)CBr)c1 | 2.77 µM | 3.28 µM | 1.89 µM | 1.29 µM | 1.88 µM | 0.0437 µM | 3.51 µM | 3.3 µM | 3.46 µM | 3.39 µM | – | – | – | – | – | – | – | – | – | –
